# Measured values from patent US5545618A, “GLP-1 analogs useful for diabetes treatment” (priority 1993, dated 1996).
# Read-outs that look alike come from different tables or passages of the source. Where no end group is shown, it is not given here.
# How the values were obtained:
# RIN 1046-38 cells = system: RIN 1046-38 cells
# Protocol: An additional test for potency of the compounds of the invention measures their ability to stimulate cAMP production in RIN 1046-38 cells. This assay can be conducted as follows:
# On day 1, 5×10^5 RIN 1046-38 cells (Drucker, D. J., et al., Proc Natl Acad Sci USA (1987) 84:3434-3438) are seeded into individual wells of 6-well dishes with 2.5 mL M199 culture medium. On day 4, cells are re-fed with fresh medium and on day 5 the assay is performed. […] Assays are only performed on cell passage ≤24.
# At time -60 min, monolayers are washed twice with 2.5 mL PBS, and medium is changed to 1.0 mL of DMEM medium plus 4.5 g/l glucose and 0.1% BSA (assay medium). At 0 time, medium is aspirated and fresh assay medium, 1.0 mL, containing test compound is added. Test compound is added in 50 ul volume of PBS plus 0.1% BSA; controls are added in vehicle alone. Incubation is continued for 0 to 60 min.
# At termination, conditioned medium and monolayer are harvested to measure both extra- and intracellular cAMP content. For extracellular measurement, medium is removed and centrifuged to remove any cellular debris. For intracellular determination, after medium removal, 1.0 mL of ice cold 95% ethanol is added to monolayer. Cells are collected by scraping, lysed by two cycles of quick freeze/thawing using liquid N2, and cell debris then removed by centrifugation. Aliquots (1/40th well content) of conditioned medium and ethanol cell extract are measured in duplicate for cAMP levels using an RIA kit by the acetylated protocol.
# Insulin secretion can also be measured by the method described by Holst, J. J., et al. FEBS Letters (1987) 211:169-174 (supra). Also useful as an assay for insulinotropic effect is the measurement of stimulation of adenylate cyclase in the RIN 1046-38 cell line. Drucker, D. J. et al., Proc Natl Acad Sci USA (1987) 84:3434-3438 (supra).
# [1] = degradation in plasma by RP-HPLC; assay type: in vitro ADME; conditions: incubation in plasma for 60 minutes; also: key: +: degradation was not observed; -: was complete after this time
# Protocol: In this assay, the analog is added to plasma for various times and recovered similarly to the method described above for radiolabel sequencing analysis. Specifically, the analog at a concentration of 100 nM in RIA buffer is spiked into 1 mL plasma to a final concentration of 1 nM and after incubation in 37° C. circulating water bath for various preset times, the reaction is stopped by bringing the plasma to 0.1% (w/v) in bacitracin.
# The peptides are then purified by Sep-Pak extraction as described above. The eluates are concentrated to about 1 mL on a Speed-vac, diluted with 1 mL distilled water, frozen at 80° C. and lyophilized overnight. The powder is resuspended in 0.5 mL Buffer C (0.1% TFA in water) per mL starting plasma and 0.25 mL are injected on a Hewlett-Packard 109OL liquid chromatograph using an Alltech C18 column (0.45×25 cm; 10 μm particle size) with a Brownlee 2 cm C18 guard column. The extraction is monitored at OD214 throughout the run and the solvent flow rate was 1 mL/minute. A gradient between Buffer C and Buffer D (0.1% TFA in acetonitrile) is set up over a 40 minute run time. The gradient starts at 35% D is held for the first 2 minutes after injection and then increased to 42% D over 24 minutes. The gradient is then increased to 60% D over the next two minutes, held at this level for 2 minutes and returned to 35% D over the next 2 minutes. The % D remains at 35% for the remaining 8 minutes of the run. Fractions are collected at 0.5 minute intervals for the first 30 minutes of each run and dried in a Speed-vac.
Resistance to Degradation [1],Molecule,ED50 nM Duplicate Assays (first value) (RIN 1046-38 cells),ED50 nM Duplicate Assays (second value) (RIN 1046-38 cells),further results
+,CC[C@H](C)[C@H](NC(=O)[C@H](Cc1ccccc1)NC(=O)[C@H](CCC(=O)O)NC(=O)[C@H](CCCCN)NC(=O)[C@H](C)NC(=O)[C@H](C)NC(=O)[C@H](CCC(N)=O)NC(=O)CNC(=O)[C@H](CCC(=O)O)NC(=O)[C@H](CC(C)C)NC(=O)[C@H](Cc1ccc(O)cc1)NC(=O)[C@H](CO)NC(=O)[C@H](CO)NC(=O)[C@@H](NC(=O)[C@H](CC(=O)O)NC(=O)[C@H](CO)NC(=O)[C@@H](NC(=O)[C@H](Cc1ccccc1)NC(=O)[C@@H](NC(=O)CNC(=O)[C@H](CCC(=O)O)NC(=O)[C@H](C)NC(=O)[C@H](CCCCN)NC(C)=O)[C@@H](C)O)[C@@H](C)O)C(C)C)C(=O)N[C@@H](C)C(=O)N[C@@H](Cc1c[nH]c2ccccc12)C(=O)N[C@@H](CC(C)C)C(=O)N[C@H](C(=O)N[C@@H](CCCCN)C(=O)NCC(=O)N[C@@H](CCCNC(=N)N)C(=O)NCC(=O)O)C(C)C [(N-acetyl-K)^7 GLP-1 (7-37)],,,
+,CC[C@H](C)[C@H](NC(=O)[C@H](Cc1ccccc1)NC(=O)[C@H](CCC(=O)O)NC(=O)[C@H](CCCCN)NC(=O)[C@H](C)NC(=O)[C@H](C)NC(=O)[C@H](CCC(N)=O)NC(=O)CNC(=O)[C@H](CCC(=O)O)NC(=O)[C@H](CC(C)C)NC(=O)[C@H](Cc1ccc(O)cc1)NC(=O)[C@H](CO)NC(=O)[C@H](CO)NC(=O)[C@@H](NC(=O)[C@H](CC(=O)O)NC(=O)[C@H](CO)NC(=O)[C@@H](NC(=O)[C@H](Cc1ccccc1)NC(=O)[C@@H](NC(=O)CNC(=O)[C@H](CCC(=O)O)NC(=O)[C@H](C)NC(=O)[C@H](Cc1c[nH]cn1)NC(C)=O)[C@@H](C)O)[C@@H](C)O)C(C)C)C(=O)N[C@@H](C)C(=O)N[C@@H](Cc1c[nH]c2ccccc12)C(=O)N[C@@H](CC(C)C)C(=O)N[C@H](C(=O)N[C@@H](CCCCN)C(=O)NCC(=O)N[C@@H](CCCNC(=N)N)C(=O)NCC(=O)O)C(C)C [(N-acetyl-H)^7 -GLP-1(7-37)],,,
-,HSQGTFTSDYSKYLDGQAAKEFIAWLVKGRG [(S)^8 (Q)^9 (Y)^16 (K)^18 (D)^21 -GLP-1(7-37)],,,
-,CC[C@H](C)[C@H](NC(=O)[C@H](Cc1ccccc1)NC(=O)[C@H](CCC(=O)O)NC(=O)[C@H](CCCCN)NC(=O)[C@H](C)NC(=O)[C@H](C)NC(=O)[C@H](CCC(N)=O)NC(=O)CNC(=O)[C@H](CCC(=O)O)NC(=O)[C@H](CC(C)C)NC(=O)[C@H](Cc1ccc(O)cc1)NC(=O)[C@H](CO)NC(=O)[C@H](CO)NC(=O)[C@@H](NC(=O)[C@H](CC(=O)O)NC(=O)[C@H](CO)NC(=O)[C@@H](NC(=O)[C@H](Cc1ccccc1)NC(=O)[C@@H](NC(=O)CNC(=O)[C@H](CCC(=O)O)NC(=O)[C@H](C)NC(=O)[C@@H](N)CCCCN)[C@@H](C)O)[C@@H](C)O)C(C)C)C(=O)N[C@@H](C)C(=O)N[C@@H](Cc1c[nH]c2ccccc12)C(=O)N[C@@H](CC(C)C)C(=O)N[C@H](C(=O)N[C@@H](CCCCN)C(=O)NCC(=O)N[C@@H](CCCNC(=N)N)C(=O)NCC(=O)O)C(C)C [(K)^7 -GLP-1(7-37)],,,
-,CC[C@H](C)[C@H](NC(=O)[C@H](Cc1ccccc1)NC(=O)[C@H](CCC(=O)O)NC(=O)[C@H](CCCCN)NC(=O)[C@H](C)NC(=O)[C@H](C)NC(=O)[C@H](CCC(N)=O)NC(=O)CNC(=O)[C@H](CCC(=O)O)NC(=O)[C@H](CC(C)C)NC(=O)[C@H](Cc1ccc(O)cc1)NC(=O)[C@H](CO)NC(=O)[C@H](CO)NC(=O)[C@@H](NC(=O)[C@H](CC(=O)O)NC(=O)[C@H](CO)NC(=O)[C@@H](NC(=O)[C@H](Cc1ccccc1)NC(=O)[C@@H](NC(=O)CNC(=O)[C@H](CCC(N)=O)NC(=O)[C@H](C)NC(=O)[C@@H](N)Cc1c[nH]cn1)[C@@H](C)O)[C@@H](C)O)C(C)C)C(=O)N[C@@H](C)C(=O)N[C@@H](Cc1c[nH]c2ccccc12)C(=O)N[C@@H](CC(C)C)C(=O)N[C@H](C(=O)N[C@@H](CCCCN)C(=O)NCC(=O)N[C@@H](CCCNC(=N)N)C(=O)NCC(=O)O)C(C)C [(Q)^9 GLP-1 (7-37)],,,

# Continued, molecule first:
Molecule,Resistance to Degradation [1],ED50 nM Duplicate Assays (first value) (RIN 1046-38 cells),ED50 nM Duplicate Assays (second value) (RIN 1046-38 cells),further results
CC[C@H](C)[C@H](NC(=O)[C@H](Cc1ccccc1)NC(=O)[C@H](CCC(=O)O)NC(=O)[C@H](CCCCN)NC(=O)[C@H](C)NC(=O)[C@H](C)NC(=O)[C@H](CCC(N)=O)NC(=O)CNC(=O)[C@H](CCC(=O)O)NC(=O)[C@H](CC(C)C)NC(=O)[C@H](Cc1ccc(O)cc1)NC(=O)[C@H](CO)NC(=O)[C@H](CO)NC(=O)[C@@H](NC(=O)[C@H](CC(=O)O)NC(=O)[C@H](CO)NC(=O)[C@@H](NC(=O)[C@H](Cc1ccccc1)NC(=O)[C@@H](NC(=O)CNC(=O)[C@H](CCC(=O)O)NC(=O)[C@H](C)NC(=O)[C@H](Cc1c[nH]cn1)NC(=O)[C@H](CCCNC(=N)N)NC(=O)[C@H](CCC(=O)O)NC(=O)[C@H](Cc1ccccc1)NC(=O)[C@@H](N)CCC(=O)O)[C@@H](C)O)[C@@H](C)O)C(C)C)C(=O)N[C@@H](C)C(=O)N[C@@H](Cc1c[nH]c2ccccc12)C(=O)N[C@@H](CC(C)C)C(=O)N[C@H](C(=O)N[C@@H](CCCCN)C(=O)NCC(=O)N[C@@H](CCCNC(=N)N)C(=O)NCC(=O)O)C(C)C [GLP-1(3-37)],,70 nM,81 nM,
CC[C@H](C)[C@H](NC(=O)[C@H](Cc1ccccc1)NC(=O)[C@H](CCC(=O)O)NC(=O)[C@H](CCCCN)NC(=O)[C@H](C)NC(=O)[C@H](C)NC(=O)[C@H](CCC(N)=O)NC(=O)CNC(=O)[C@H](CCC(=O)O)NC(=O)[C@H](CC(C)C)NC(=O)[C@H](Cc1ccc(O)cc1)NC(=O)[C@H](CO)NC(=O)[C@H](CO)NC(=O)[C@@H](NC(=O)[C@H](CC(=O)O)NC(=O)[C@H](CO)NC(=O)[C@@H](NC(=O)[C@H](Cc1ccccc1)NC(=O)[C@@H](NC(=O)CNC(=O)[C@H](CCC(=O)O)NC(=O)[C@H](C)NC(=O)[C@H](Cc1c[nH]cn1)NC(=O)[C@H](CCCNC(=N)N)NC(=O)[C@H](CCC(=O)O)NC(=O)[C@H](Cc1ccccc1)NC(=O)[C@H](CCC(=O)O)NC(=O)[C@H](CC(=O)O)NC(=O)[C@@H](N)Cc1c[nH]cn1)[C@@H](C)O)[C@@H](C)O)C(C)C)C(=O)N[C@@H](C)C(=O)N[C@@H](Cc1c[nH]c2ccccc12)C(=O)N[C@@H](CC(C)C)C(=O)N[C@H](C(=O)N[C@@H](CCCCN)C(=O)NCC(=O)N[C@@H](CCCNC(=N)N)C(=O)NCC(=O)O)C(C)C [GLP-1(1-37)],,> 1000 nM,2900 nM,
CC[C@H](C)[C@H](NC(=O)[C@H](Cc1ccccc1)NC(=O)[C@H](CCC(=O)O)NC(=O)[C@H](CCCCN)NC(=O)[C@H](C)NC(=O)[C@H](C)NC(=O)[C@H](CCC(N)=O)NC(=O)CNC(=O)[C@H](CCC(=O)O)NC(=O)[C@H](CC(C)C)NC(=O)[C@H](Cc1ccc(O)cc1)NC(=O)[C@H](CO)NC(=O)[C@H](CO)NC(=O)[C@@H](NC(=O)[C@H](CC(=O)O)NC(=O)[C@H](CO)NC(=O)[C@@H](NC(=O)[C@H](Cc1ccccc1)NC(=O)[C@@H](NC(=O)CNC(=O)[C@H](CCC(=O)O)NC(=O)[C@H](C)NC(=O)[C@H](Cc1c[nH]cn1)NC(=O)[C@H](CCCNC(=N)N)NC(=O)[C@@H](N)CCC(=O)O)[C@@H](C)O)[C@@H](C)O)C(C)C)C(=O)N[C@@H](C)C(=O)N[C@@H](Cc1c[nH]c2ccccc12)C(=O)N[C@@H](CC(C)C)C(=O)N[C@H](C(=O)N[C@@H](CCCCN)C(=O)NCC(=O)N[C@@H](CCCNC(=N)N)C(=O)NCC(=O)O)C(C)C [GLP-1(5-37)],,150 nM,,
gastric inhibitory peptide [GIP],,,,"ED50 nM Duplicate Assays (first value) (RIN 1046-38 cells; cAMP stimulation in RIN 1046-38 cells, first of duplicate assays): 10.0 nM; ED50 nM Duplicate Assays (second value) (RIN 1046-38 cells; cAMP stimulation in RIN 1046-38 cells, second of duplicate assays): 37.5 nM"
CC[C@H](C)[C@H](NC(=O)[C@H](Cc1ccccc1)NC(=O)[C@H](CCC(=O)O)NC(=O)[C@H](CCCCN)NC(=O)[C@H](C)NC(=O)[C@H](C)NC(=O)[C@H](CCC(N)=O)NC(=O)CNC(=O)[C@H](CCC(=O)O)NC(=O)[C@H](CC(C)C)NC(=O)[C@H](Cc1ccc(O)cc1)NC(=O)[C@H](CO)NC(=O)[C@H](CO)NC(=O)[C@@H](NC(=O)[C@H](CC(=O)O)NC(=O)[C@H](CO)NC(=O)[C@@H](NC(=O)[C@H](Cc1ccccc1)NC(=O)[C@@H](NC(=O)CNC(=O)[C@H](CCC(=O)O)NC(=O)[C@H](C)NC(=O)[C@H](Cc1c[nH]cn1)NC(=O)[C@H](CCCNC(=N)N)NC(=O)[C@H](CCC(=O)O)NC(=O)[C@@H](N)Cc1ccccc1)[C@@H](C)O)[C@@H](C)O)C(C)C)C(=O)N[C@@H](C)C(=O)N[C@@H](Cc1c[nH]c2ccccc12)C(=O)N[C@@H](CC(C)C)C(=O)N[C@H](C(=O)N[C@@H](CCCCN)C(=O)NCC(=O)N[C@@H](CCCNC(=N)N)C(=O)NCC(=O)O)C(C)C [GLP-1(4-37)],,130 nM,200 nM,
